Test results taken from PubChem BioAssay AID588647 (Sanford-Burnham Center for Chemical Genomics, 2011).
Values joined by “and” are separate entries in the source; they are usually repeats but may differ in a detail not shown here. Identical values can stand only once. Active and inactive are the calls of the source. The rule behind the calls is not given here.

Target: intestinal alkaline phosphatase (Mus musculus)
Assay: mouse IAP inhibition by analogs – biochemical, luminescence, set 2, SAR follow-up (AID 588647)
Details: purified mouse IAP, luminescent substrate read-out

Question: Which IC50 does the source give for `Cc1ccc(C)c(CNC(=O)C2CCCN(S(=O)(=O)c3ccc4[nH]c(=O)oc4c3)C2)c1` (stereo not drawn) here?
Answer: The IC50 was > 100 µM (inactive).

Question: Which IC50 does the source give for `CSc1cccc(NC(=O)CCNS(=O)(=O)c2ccc3c(c2)oc(=O)n3C)c1` here?
Answer: The IC50 was > 100 µM (inactive).

Question: For `O=C(N/N=C/c1cccc(Cl)c1Cl)c1cc(O)c(O)c(O)c1`, which IC50 is on record?
Answer: The IC50 was 19.9 µM.

Question: For `COc1cccc(/C=N/NC(=O)c2cc(O)c(O)c(O)c2)c1O`, which IC50 is on record?
Answer: Its IC50 is 4.01 µM.

Question: `Cc1ccc(C)c(NC(=O)CCNS(=O)(=O)c2ccc3c(c2)CCC3)c1` was tested. Which IC50 did it give?
Answer: Its IC50 is > 100 µM (inactive).

Question: How did the IC50 turn out when `O=c1[nH]c2ccc(S(=O)(=O)Nc3ccc4c(c3)OCO4)cc2o1` was run?
Answer: Its IC50 is > 100 µM (inactive).

Question: `Cc1ccc(C)c(NC(=O)C2CCCN(S(=O)(=O)c3ccc4c(c3)oc(=O)n4C)C2)c1` (stereo not drawn) was tested. Which IC50 did it give?
Answer: Its IC50 is > 100 µM (inactive).

Question: Which IC50 does the source give for `COc1ccc(OC)c(NC(=O)CCNS(=O)(=O)c2ccc3c(c2)oc(=O)n3C)c1` here?
Answer: The IC50 was > 100 µM (inactive).

Question: Which IC50 does the source give for `COc1ccc(CNC(=O)CCNS(=O)(=O)c2ccc3ccccc3c2)c(OC)c1` here?
Answer: The IC50 was > 100 µM (inactive).

Question: For `COc1ccc(CNS(=O)(=O)c2ccc3[nH]c(=O)oc3c2)cc1`, which IC50 is on record?
Answer: Its IC50 is 98 µM.

Question: `O=C(CCNS(=O)(=O)c1ccc2[nH]c(=O)oc2c1)NCc1ccccc1` was tested. Which IC50 did it give?
Answer: Its IC50 is 81 µM.

Question: For `O=C(CNS(=O)(=O)c1ccc2[nH]c(=O)oc2c1)NCCc1ccc2c(c1)OCO2`, which IC50 is on record?
Answer: Its IC50 is > 100 µM (inactive).

Question: Which IC50 does the source give for `COc1cccc(CNS(=O)(=O)c2ccc3[nH]c(=O)oc3c2)c1` here?
Answer: Its IC50 is 40 µM.

Question: With `C/C(=N\NC(=O)c1cc(O)c(O)c(O)c1)c1ccc(O)cc1O` as the compound, how does the IC50 read?
Answer: Its IC50 is 0.777 µM.

Question: How did the IC50 turn out when `COc1cccc(CNC(=O)CCNS(=O)(=O)c2ccc3[nH]c(=O)oc3c2)c1` was run?
Answer: Its IC50 is 0.82 µM and 34 µM and > 100 µM (inactive).

Question: Which IC50 does the source give for `Cc1ccc(C)c(NC(=O)CCNS(=O)(=O)c2ccc3ccccc3c2)c1` here?
Answer: The IC50 was 78 µM.

Question: With `O=c1[nH]c2ccc(S(=O)(=O)NCCc3ccc4c(c3)OCO4)cc2o1` as the compound, how does the IC50 read?
Answer: Its IC50 is > 100 µM (inactive).

Question: For `CCOc1cc(C(=O)N/N=C/c2ccccc2F)cc(OCC)c1OCC`, which IC50 is on record?
Answer: The IC50 was > 100 µM (inactive).

Question: How did the IC50 turn out when `Cc1ccccc1CNC(=O)CCCNS(=O)(=O)c1ccc2[nH]c(=O)oc2c1` was run?
Answer: The IC50 was > 100 µM (inactive).

Question: `COc1ccc(CNC(=O)C2CCCN(S(=O)(=O)c3ccc4[nH]c(=O)oc4c3)C2)cc1` (stereo not drawn) was tested. Which IC50 did it give?
Answer: The IC50 was > 100 µM (inactive).

Question: Which IC50 does the source give for `O=C(N/N=C/c1c(F)cccc1Cl)c1cc(O)c(O)c(O)c1` here?
Answer: Its IC50 is 8.02 µM.

Question: How did the IC50 turn out when `COc1ccc(NC(=O)CCNS(=O)(=O)c2ccc3c(c2)CCC3)cc1OC` was run?
Answer: The IC50 was > 100 µM (inactive).

Question: For `O=C(CCNS(=O)(=O)c1ccc2c(c1)CCC2)NCCc1ccc2c(c1)OCO2`, which IC50 is on record?
Answer: The IC50 was > 100 µM (inactive).

Question: How did the IC50 turn out when `O=c1[nH]c2ccc(S(=O)(=O)NCc3ccc4c(c3)OCO4)cc2o1` was run?
Answer: Its IC50 is > 100 µM (inactive).

Question: `O=C(CCNS(=O)(=O)c1ccc2[nH]c(=O)oc2c1)NCc1ccc(C(F)(F)F)cc1` was tested. Which IC50 did it give?
Answer: The IC50 was > 100 µM (inactive).

Question: `COc1ccc(NC(=O)CCCNS(=O)(=O)c2ccc3[nH]c(=O)oc3c2)c(OC)c1` was tested. Which IC50 did it give?
Answer: Its IC50 is 6.3 µM.

Question: `O=C(N/N=C/c1ccccc1F)c1ccc(O)cc1O` was tested. Which IC50 did it give?
Answer: The IC50 was > 100 µM (inactive).

Question: `O=C(CCS(=O)(=O)Nc1ccc2[nH]c(=O)oc2c1)NCc1cccc(F)c1` was tested. Which IC50 did it give?
Answer: Its IC50 is 66 µM.

Question: Which IC50 does the source give for `COc1ccc(NC(=O)CCNS(=O)(=O)c2ccc3[nH]c(=O)oc3c2)cc1OC` here?
Answer: The IC50 was 0.53 µM and 0.54 µM.

Question: For `COc1ccc(OC)c(NC(=O)C2CCCN(S(=O)(=O)c3ccc4c(c3)oc(=O)n4C)C2)c1` (stereo not drawn), which IC50 is on record?
Answer: The IC50 was > 100 µM (inactive).

Question: For `CCc1ccc(NC(=O)CCNS(=O)(=O)c2ccc3c(c2)oc(=O)n3C)cc1`, which IC50 is on record?
Answer: The IC50 was > 100 µM (inactive).

Question: With `Cc1cc(NC(=O)CCNS(=O)(=O)c2ccc3[nH]c(=O)oc3c2)ccc1Br` as the compound, how does the IC50 read?
Answer: Its IC50 is 94 µM.

Question: For `COc1ccc(CNC(=O)CCNS(=O)(=O)c2ccc3[nH]c(=O)oc3c2)cc1`, which IC50 is on record?
Answer: The IC50 was 3 µM and 2.3 µM.

Question: How did the IC50 turn out when `O=C(CCCNS(=O)(=O)c1ccc2[nH]c(=O)oc2c1)NCc1ccccc1Cl` was run?
Answer: Its IC50 is 1.6 µM and > 100 µM (inactive).

Question: `COc1ccc(CCNC(=O)CCCNS(=O)(=O)c2ccc3[nH]c(=O)oc3c2)cc1OC` was tested. Which IC50 did it give?
Answer: The IC50 was 1.5 µM.

Question: With `O=C(CCNS(=O)(=O)c1ccc2[nH]c(=O)oc2c1)NCc1cccc(Cl)c1` as the compound, how does the IC50 read?
Answer: The IC50 was > 100 µM (inactive).

Question: How did the IC50 turn out when `O=C(CCCNS(=O)(=O)c1ccc2[nH]c(=O)oc2c1)NCc1ccc2c(c1)OCO2` was run?
Answer: The IC50 was 45 µM.

Question: With `CCc1ccc(NC(=O)C2CCCN(S(=O)(=O)c3ccc4c(c3)oc(=O)n4C)C2)cc1` (stereo not drawn) as the compound, how does the IC50 read?
Answer: The IC50 was > 100 µM (inactive).

Question: Which IC50 does the source give for `COc1ccc(C(=O)N/N=C/c2ccccc2F)cc1` here?
Answer: The IC50 was > 100 µM (inactive).

Question: How did the IC50 turn out when `COc1cc(C(=O)N/N=C/c2c(F)cccc2Cl)cc(OC)c1OC` was run?
Answer: Its IC50 is > 100 µM (inactive).

Question: How did the IC50 turn out when `O=C(CCNS(=O)(=O)c1ccc2[nH]c(=O)oc2c1)NCc1ccc(F)cc1` was run?
Answer: The IC50 was > 100 µM (inactive).

Question: With `COc1cccc(NC(=O)CCNS(=O)(=O)c2ccc3c(c2)oc(=O)n3C)c1` as the compound, how does the IC50 read?
Answer: The IC50 was > 100 µM (inactive).

Question: Which IC50 does the source give for `O=C(CCS(=O)(=O)Nc1ccc2[nH]c(=O)oc2c1)NCc1ccccc1Cl` here?
Answer: The IC50 was 86 µM.

Question: For `CC(C)c1ccc(NC(=O)CCNS(=O)(=O)c2ccc3c(c2)oc(=O)n3C)cc1`, which IC50 is on record?
Answer: The IC50 was > 100 µM (inactive).

Question: With `COc1ccc(C(=O)N/N=C/c2c(F)cccc2Cl)cc1OC` as the compound, how does the IC50 read?
Answer: The IC50 was > 100 µM (inactive).

Question: Which IC50 does the source give for `COc1ccc(CNC(=O)CCNS(=O)(=O)c2ccc3c(c2)CCC3)c(OC)c1` here?
Answer: The IC50 was > 100 µM (inactive).

Question: How did the IC50 turn out when `O=C(N/N=C/c1c(F)cccc1Cl)c1ccc(O)cc1` was run?
Answer: The IC50 was > 100 µM (inactive).

Question: `N#Cc1cccc(NS(=O)(=O)c2ccc3[nH]c(=O)oc3c2)c1` was tested. Which IC50 did it give?
Answer: Its IC50 is > 100 µM (inactive).
